Among the test systems are OVCAR-4 ovarian; IGROV1 ovarian; BT-549 breast; SK-OV-3 ovarian; CCRF-CEM leukemia; M14 melanoma; MDA-MB-231 breast; NCI-H226 lung; SF-539 CNS; SN12C renal.
Holding throughout (test): NCI-60 cell line screen, 48 h

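Step 1: Grow cells in 96-well plates. Step 2: Expose to compound for 48 hours at 5 concentrations. Step 3: Interpolate endpoints linearly; if unreached, use highest concentration. Abbreviation: GI50, concentration required for 50% inhibition of growth. TGI denotes the concentration required for complete inhibition of growth.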 A value given as a limit tells only on which side of the number the result lay.

As for `O=C(NCCC1CN(S(=O)(=O)C(F)(F)F)c2ccccc21)OCc1ccccc1` (stereo not given), the TGI in the experiment on OVCAR-4 ovarian, in the experiment on IGROV1 ovarian, in the experiment with BT-549 breast, in the experiment with SK-OV-3 ovarian, with CCRF-CEM leukemia and in the experiment on M14 melanoma was more than 100 µM in each case. The TGI in the experiment on MDA-MB-231 breast was more than 100 µM.
For `N#CC(C#N)C1CN2CCC1CC2` (stereo not given), the TGI with OVCAR-4 ovarian, in the experiment on IGROV1 ovarian, with NCI-H226 lung, with SF-539 CNS, with SK-OV-3 ovarian and in the experiment with CCRF-CEM leukemia was more than 100 µM each time. Also, the TGI in the experiment on SN12C renal, with M14 melanoma and in the experiment on MDA-MB-231 breast was more than 100 µM each time.
As for `COc1ccc2nc3c([N+](=O)[O-])ccc(NCCCN(C)C)c3c(N)c2c1`, the TGI in the experiment with OVCAR-4 ovarian was found to be 3.06 µM; in the experiment with IGROV1 ovarian it was 2.85 µM; in the experiment on NCI-H226 lung, 3.82 µM; with SF-539 CNS it was 3.36 µM; in the experiment on SK-OV-3 ovarian it was 3.01 µM; in the experiment on CCRF-CEM leukemia, 1.26 µM. In addition, the TGI is 2.99 µM in the experiment on SN12C renal, 3.61 µM in the experiment with M14 melanoma and 3.09 µM with MDA-MB-231 breast.
Regarding `O=P(Nc1cccc(Cl)c1)(Oc1ccccc1)N(CCCl)CCCl` (stereo not given), the TGI in the experiment on OVCAR-4 ovarian was 25.4 µM; with IGROV1 ovarian, 30.4 µM; in the experiment with NCI-H226 lung, 29.6 µM; in the experiment on SF-539 CNS, 31.2 µM; with SK-OV-3 ovarian, more than 100 µM; with CCRF-CEM leukemia, more than 100 µM. The TGI in the experiment on SN12C renal was 29.1 µM; with M14 melanoma, 28.6 µM.
On to `CCOC(=O)CCC(C(=O)OCC)n1nnc2ccc(Nc3c(C)[n+]([O-])c4cc(F)c(OCC)cc4[n+]3[O-])cc21` (stereo not given), for which the TGI in the experiment with OVCAR-4 ovarian was more than 100 µM; in the experiment with IGROV1 ovarian, more than 100 µM; in the experiment on NCI-H226 lung, more than 100 µM; in the experiment on BT-549 breast it was more than 100 µM; in the experiment with SF-539 CNS, 64.4 µM; in the experiment with SK-OV-3 ovarian, more than 100 µM. The TGI in the experiment on CCRF-CEM leukemia, with SN12C renal and in the experiment with M14 melanoma was more than 100 µM throughout.
As to `Brc1ccc(C[N+]23CN4CN(CN(C4)C2)C3)cc1`, the TGI was more than 100 µM with IGROV1 ovarian; more than 100 µM with SF-539 CNS; more than 100 µM with SK-OV-3 ovarian; 62.9 µM with CCRF-CEM leukemia; 62.4 µM with SN12C renal; 33 µM in the experiment on M14 melanoma.
With `O=C(CSc1nnc(-c2ccc(N=Cc3ccc(Cl)cc3)cc2)o1)Nc1cccc([N+](=O)[O-])c1`, the TGI with OVCAR-4 ovarian, with NCI-H226 lung, with SK-OV-3 ovarian, in the experiment with CCRF-CEM leukemia, in the experiment on SN12C renal and in the experiment on M14 melanoma was more than 100 µM throughout.
As to `CON(C(=O)OC(C)(C)C)c1ccccc1`, the TGI in the experiment with OVCAR-4 ovarian, in the experiment with IGROV1 ovarian, with NCI-H226 lung, in the experiment on BT-549 breast, in the experiment on SK-OV-3 ovarian and in the experiment on CCRF-CEM leukemia was more than 100 µM throughout. For the same compound, the TGI with M14 melanoma and in the experiment on MDA-MB-231 breast was more than 100 µM throughout.
`COc1ccc(/C=C(\C2=NC(=O)CS2)c2nc3ccccc3[nH]2)cc1`: the TGI is more than 100 µM with OVCAR-4 ovarian; more than 100 µM in the experiment with IGROV1 ovarian; 28.6 µM in the experiment with NCI-H226 lung; 41.9 µM in the experiment with SF-539 CNS; 60 µM with SK-OV-3 ovarian; more than 100 µM in the experiment on CCRF-CEM leukemia. In addition, the TGI in the experiment on SN12C renal and in the experiment with M14 melanoma was more than 100 µM each time.
Regarding `CCN(CCN(CC)C(=O)NC)C(=O)NC`, the TGI in the experiment on IGROV1 ovarian, with NCI-H226 lung, in the experiment on BT-549 breast, in the experiment with SK-OV-3 ovarian, with CCRF-CEM leukemia and with SN12C renal was more than 100 µM in each case. Further, the TGI with M14 melanoma and with MDA-MB-231 breast was more than 100 µM throughout.
As for `COc1ccc(N2C(=O)C3C=CC(n4[nH]c(=O)n(Cc5ccccc5)c4=O)CC3C2=O)cc1` (stereo not given), the TGI in the experiment on IGROV1 ovarian, in the experiment with NCI-H226 lung, in the experiment on SF-539 CNS, in the experiment with SK-OV-3 ovarian, in the experiment on CCRF-CEM leukemia and in the experiment on SN12C renal was more than 100 µM each time. Also, the TGI in the experiment on M14 melanoma is more than 100 µM.
`CCSc1[nH]c(NC(=NC(C)C)NC(=O)c2ccccc2)c(C(N)=O)c1C(N)=O`: the TGI with OVCAR-4 ovarian, in the experiment on IGROV1 ovarian, in the experiment with SK-OV-3 ovarian, in the experiment with CCRF-CEM leukemia, in the experiment with SN12C renal and in the experiment on M14 melanoma was more than 10 µM each time. In addition, the TGI in the experiment with MDA-MB-231 breast is more than 10 µM.
In the case of `O=C1C(=O)N(C23CC4CC(CC(C4)C2)C3)C(=S)N1c1ccccc1`, the TGI in the experiment with OVCAR-4 ovarian, in the experiment with IGROV1 ovarian, in the experiment on NCI-H226 lung, with SF-539 CNS, with SK-OV-3 ovarian and in the experiment on CCRF-CEM leukemia was more than 100 µM in each case. For the same compound, the TGI in the experiment on SN12C renal and in the experiment with MDA-MB-231 breast was more than 100 µM each time.
`CN1CCN(Cn2nc(-c3cc(F)c(Cl)cc3Cl)oc2=S)CC1`: the GI50 in the experiment on OVCAR-4 ovarian was 30.9 µM; in the experiment on IGROV1 ovarian, 37.1 µM; in the experiment on NCI-H226 lung, 34.4 µM; in the experiment on SF-539 CNS it was 29.9 µM; in the experiment with SK-OV-3 ovarian, 56.9 µM; in the experiment on CCRF-CEM leukemia it was 33.4 µM. Further, the GI50 was 28.3 µM in the experiment on SN12C renal and 17.8 µM in the experiment with MDA-MB-231 breast. The TGI was more than 100 µM in the experiment on OVCAR-4 ovarian; more than 100 µM in the experiment with IGROV1 ovarian; more than 100 µM in the experiment on NCI-H226 lung; 71.5 µM in the experiment with SF-539 CNS; more than 100 µM with SK-OV-3 ovarian; more than 100 µM in the experiment with CCRF-CEM leukemia. In addition, the TGI in the experiment with SN12C renal is more than 100 µM; in the experiment with MDA-MB-231 breast it was 62.5 µM.
On to `O=C1CCc2ccccc2O1`, for which the TGI in the experiment with OVCAR-4 ovarian, in the experiment with IGROV1 ovarian, with NCI-H226 lung, with SK-OV-3 ovarian, in the experiment on CCRF-CEM leukemia and in the experiment with SN12C renal was more than 100 µM throughout. In the experiment on MDA-MB-231 breast, the TGI was more than 100 µM.
Take `O=C1[C@H](O)[C@@H]2CCC[C@@]23CCCN13`: the TGI in the experiment with IGROV1 ovarian, with NCI-H226 lung, in the experiment on SF-539 CNS, in the experiment with SK-OV-3 ovarian, in the experiment on CCRF-CEM leukemia and in the experiment with SN12C renal was more than 100 µM throughout. The same compound yielded a TGI in the experiment with M14 melanoma of more than 100 µM.

The record behind these values is PubChem BioAssay (NCI).
